# Experimental data taken from US8530421B2, “Isolated polypeptides used for treatment of inflammatory diseases and inhibiting cancer metastasis” (Supadelixir Inc., priority 2009, dated 2013).
# Test system: IgE-mediated immediate hypersensitivity reaction-induced mice
# Test: IgE-mediated immediate hypersensitivity reaction, ear thickness
# Type: in vivo, Balb/c mice
# Details: 100 μg tail vein, then 100 μg intraperitoneally daily from third day; DNFB antigen; 15 days
# Procedure: Anti-allergic activity of the polypeptide according to the present invention was investigated. Balb/c mice (about 6 weeks old) were sensitized by injecting IgE antibody (5 μg) through the tail vain thereof. After 24 hours, the protein solution (100 μl) prepared by dissolving the peptide fragment of SEQ ID NO: 13 (100 μg) in PBS (100 μl) was injected through the tail vain of the sensitized mice. A 0.15% DNFB solution [2,4-d]nitrofluorobenzene in aceton: olive oil (4:1)] as an antigen was applied on each ear of the mice so as to induce IgE-mediated immediate hypersensitivity. In case of the negative control mice, only PBS (100 μl) was injected without treating a 0.15% DNFB solution. In case of the positive control mice, PBS (100 μl) was injected and then a 0.15% DNFB solution was treated. The changes in ear thickness were measured with a digital caliper every hour for 12 hours. Every day from the third day, the peptide fragment of SEQ ID NO: 13 (100 μg) was intraperitoneally injected to the test group mice, while only PBS was intraperitoneally injected to the control group mice. The changes in ear thickness were measured for 15 days.
# FIG. 12 is the graph obtained by comparing the ear thickness changes of the test group mice and the positive control mice (increased by treating a 0.15% DNFB solution) with those of the negative control.
substance,measurement,value
"SEQ ID NO: 13: Leu-Xaa-Asp with Xaa Ala; CD99L2 fragment 121~123, PBDX(or XG) fragment 27~29 (LAD; listed as Homo sapiens)",ear thickness increments relative to the positive control group,remarkably decreased
